Reference: US6462064B1, “Apoptosis inducing adamantyl derivatives and their usage as anti-cancer agents, especially for cervical cancers and dysplasias” (Galderma Research & Development S.N.C., priority 1996, dated 2002)
Entries after “also recorded” stand apart in the source; their conditions may differ. Values belong to the molecule of their own block, whether it stands above or below them.

Assays:
[1] = system: cancer cells; test: List of active compounds: types of cancers and precancers active against; type: cell-based
Excerpt: As discussed, the adamantyl retinoid derivatives according to the invention which induce apoptosis are useful for treating many different types of cancers.

[2] = system: human cervical cancer cell lines Caski and C33A; test: Proliferation assay on cervical cancer cell lines (Example 32, FIG. 6); type: cell-based
Procedure: Two human cervical cancer cell lines, the Caski and C33A (which contains integrated human papillomavirus sequences) were treated with adapalene at concentrations of 1, 2 and 10 μM for 24, 48 and 96 hours or with tretinoin as a control. Afterward, human cervical cancer cells, which had been treated for […] or 48 hours, were then washed and incubated in a medium lacking adapalene.
After a total incubation time of 96 hours, a proliferation assay was performed to assess the extent of inhibition of proliferation or cell killing. […] The EC50 (concentration of adapalene that provides for 50% inhibition of cell proliferation) for the tested human cervical cancer cell lines was estimated to be approximately 5 μM.

[3] = system: human cervical cancer cell lines (C33A cells and Caski cells); test: Proliferation of human cervical cancer cell lines (Example 33, FIG. 7); type: cell-based
Procedure: Another experiment was also conducted to compare the effect of three different retinoid compounds according to the invention, i.e., 6-[3-(1-adamantyl)-4-methoxyphenyl]-2-naphthoic acid, 2-[3-(1-adamantyl)-4-methoxyphenyl]-5-benzimidazole carboxylic acid, and 6-[3-(1-adamantyl)-4,5-methylenedioxyphenyl]-2-naphthoic acid, a control (DMSO), and a control retinoid (all-trans retinoic acid) on the proliferation of several human cervical cancer cell lines (C33A cells and Caski cells).

[4] = system: cervical cancer cell lines; test: Apoptosis, cellular DNA fragmentation ELISA (FIG. 8); type: cell-based, human; conditions: eighteen hours; adapalene 1, 5 and 10 μM, tRA 10 μM, ceramide 0.5 mM
Procedure: In this experiment cells were labeled with BrdU for six hours. After labeling, cells were treated with vehicle (DM50), or with 10 μM tRA, 0.5 mM ceramide or doses of adapalene of 1, 5 and 10 μM for eighteen hours. Apoptosis was measured using a cellular DNA fragmentation ELISA kit (available from Boehringer). […] Therein, one unit represents the value obtained from cells grown in the presence of vehicle alone.

[5] = system: Cervical Intraepithelial Neoplasia Level II or III; test: Phase I/II clinical study, aqueous adapalene gel with cervical cap and collagen sponge; type: in vivo, human; conditions: for CIN Resolved / Improved to CIN I / Overall Response / Overall “cure” / Improved from CIN III to CIN II: Table II
Excerpt: Level I corresponds to mild cervical dysplasia, II to moderate dysplasia, and III to severe dysplasia, and carcinoma in situ.
A clinical study was designed and approved where an aqueous adapalene gel was delivered with a cervical cap and a collagen sponge in patients with advanced cervical dysplasia (CIN II and CIN III). Inclusion criteria for enrollment included a biopsy proving diagnosis of CIN II or CIN III. Forty-nine patients received the drug and completed the study.

[6] = system: various human cancer cell lines; test: Anti-cancer activity against human cancer cell lines over a concentration range (FIGS. 2-4); type: cell-based; conditions: retinoid concentrations 10^−9 M to 10^−5 M
Excerpt: FIG. 2 compares the activity of selected adamantyl retinoids according to the invention and all-trans-retinoic acid against a human non-small lung carcinoma cell line.
FIG. 3 compares the activity of selected adamantyl retinoids according to the invention and all-trans-retinoic acid against human prostate adenocarcinoma, human metastatic prostate adenocarcinoma, and human prostate carcinoma cell lines.
FIG. 4 compares the activity of selected adamantyl retinoids according to the invention and all-trans-retinoic acid against a human liver cancer cell line.

[7] = system: panel of human tumor cell lines; test: Cell-based high throughput screening assays, percentage of surviving cells; conditions: active = percentage survival of less than 80; FIG. 1
Procedure: The anti-cancer activity of various adamantyl retinoid compounds according to the invention was compared to all-trans-retinoic acid using cell-based high throughput screening assays. Specifically, the following compounds were tested in such assays: all-trans-retinoic acid, 6[3(1-adamantyl)-4-methoxyphenyl]-2-naphthoic acid, 2-[3-(1-adamantyl)-4-methoxyphenyl]-5-benzimidazole carboxylic acid, 6-[3-(1-adamantyl)-4-hydroxy-5-methoxyphenyl]-2-naphthoic acid, 6-[3-(1-adamantyl)-4-acetoxymethylphenyl]-2-naphthoic acid and 6-[3-(1-adamantyl)-4,5-methylenedioxyphenyl]-2-naphthoic acid.
These compounds were tested against a panel of human tumor cell lines having a variety of tissue origins, and having distinct tumor characteristics. The tumor cell cultures were exposed to the above retinoid compounds for a specific duration. After such exposure, the percentage of surviving cells was then measured using standard assays.

[8] = length of treatment 4 days (n = 2), patients (percent)
[9] = length of treatment 8 days (n = 23), patients (percent)
[10] = length of treatment 14 days (n = 24), patients (percent)

- EC50 ([2]; Homo sapiens, total incubation time 96 hours, estimated, read-out: EC50 (concentration that provides for 50% inhibition of cell proliferation)): ~5 µM
Molecule: COc1ccc(-c2ccc3cc(C(=O)O)ccc3c2)cc1C12CC3CC(CC(C3)C1)C2 [Compound 1, 6-[3-(1-adamantyl)-4-methoxyphenyl]-2-naphthoic acid]
- Types of Cancers and Precancers Active Against [1]: brain, cervical (including, e.g.,; also recorded: cervical intraepithelial neoplasia; also recorded: I, II, III), head and neck, leu-; also recorded: kemia, lymphoma, prostate, skin
- inhibition of proliferation of cervical cancer cell lines ([2]; 1, 2 and 10 μM for 24, 48 and 96 hours): inhibit the proliferation of cervical cancer cell lines in a dose-dependent manner
- effect of incubation longer than 24 hours on proliferation ([2]; increase between 48 and 96 hours not statistically significant (p>0.05)): only a marginal effect on proliferation
- concentration at which maximum inhibition of cell proliferation occurred ([2]; tested at 1, 2 and 10 μM): 10 µM
- effect on proliferation of human cervical cell lines [3]: strong inhibitory effect
- induction of apoptosis [4]: comparable to that of cells incubated with ceramide
- Response: Complete ([5]; 4 days, CIN II (n = 0)): 0(0.0)
- Response: Overall ([5]; 4 days, CIN II (n = 0)): 0(0.0)
- Response: Partial ([5]; 4 days, CIN II (n = 0)): 0(0.0)
- Response: Progression ([5]; 4 days, CIN II (n = 0)): 0(0.0)
- Response: Stable ([5]; 4 days, CIN II (n = 0)): 0(0.0)
- Response: Complete ([5]; 4 days, CIN III/CIS (n = 2)): 0(0.0)
- Response: Overall ([5]; 4 days, CIN III/CIS (n = 2)): 0(0.0)
- Response: Partial ([5]; 4 days, CIN III/CIS (n = 2)): 0(0.0)
- Response: Progression ([5]; 4 days, CIN III/CIS (n = 2)): 0(0.0)
- Response: Stable ([5]; 4 days, CIN III/CIS (n = 2)): 2(100.0)
- Response: Complete ([5]; 8 days, CIN II (n = 12)): 4(33.3)
- Response: Overall ([5]; 8 days, CIN II (n = 12)): 8(66.7)
- Response: Partial ([5]; 8 days, CIN II (n = 12)): 4(33.3)
- Response: Progression ([5]; 8 days, CIN II (n = 12)): 0(0.0)
- Response: Stable ([5]; 8 days, CIN II (n = 12)): 4(33.3)
- Response: Complete ([5]; 8 days, CIN III/CIS (n = 11)): 3(27.3)
- Response: Overall ([5]; 8 days, CIN III/CIS (n = 11)): 6(54.5)
- Response: Partial ([5]; 8 days, CIN III/CIS (n = 11)): 3(27.3)
- Response: Progression ([5]; 8 days, CIN III/CIS (n = 11)): 0(0.0)
- Response: Stable ([5]; 8 days, CIN III/CIS (n = 11)): 5(45.4)
- Response: Complete ([5]; 14 days, CIN II (n = 14)): 3(21.4)
- Response: Overall ([5]; 14 days, CIN II (n = 14)): 6(42.9)
- Response: Partial ([5]; 14 days, CIN II (n = 14)): 3(21.4)
- Response: Progression ([5]; 14 days, CIN II (n = 14)): 0(0.0)
- Response: Stable ([5]; 14 days, CIN II (n = 14)): 8(57.1)
- Response: Complete ([5]; 14 days, CIN III/CIS (n = 10)): 2(20.0)
- Response: Overall ([5]; 14 days, CIN III/CIS (n = 10)): 3(30.0)
- Response: Partial ([5]; 14 days, CIN III/CIS (n = 10)): 1(10.0)
- Response: Progression ([5]; 14 days, CIN III/CIS (n = 10)): 0(0.0)
- Response: Stable ([5]; 14 days, CIN III/CIS (n = 10)): 7(70.0)
- CIN Resolved ([5]; CIN II, N = 27): 30%
- Improved to CIN I ([5]; CIN II, N = 27): 22%
- Overall Response ([5]; CIN II, N = 27): 52%
- Overall “cure” ([5]; CIN II, N = 27): 52%
- CIN Resolved ([5]; CIN III, N = 21): 24%
- Improved from CIN III to CIN II ([5]; CIN III, N = 21): 29%
- Improved to CIN I ([5]; CIN III, N = 21): 19%
- Overall Response ([5]; CIN III, N = 21): 72%
- Overall “cure” ([5]; CIN III, N = 21): 43%
- CIN Resolved ([5]; Total, N = 48): 27%
- Improved from CIN III to CIN II ([5]; Total, N = 48): 13%
- Improved to CIN I ([5]; Total, N = 48): 21%
- Overall Response ([5]; Total, N = 48): 61%
- Overall “cure” ([5]; Total, N = 48): 48%
- response rates versus length of treatment ([5]; eight to fourteen days): did not increase
- patients with complete response ([5]; human, in vivo): Twelve
- patients with partial response (regressed to CIN I) ([5]; human, in vivo): eleven
- patients with stable disease with no progression ([5]; human, in vivo): Twenty-six
- Response: Complete [5, 8]: 0(0.0)
- Response: Overall [5, 8]: 0(0.0)
- Response: Partial [5, 8]: 0(0.0)
- Response: Progression [5, 8]: 0(0.0)
- Response: Stable [5, 8]: 2(100.0)
- Response: Complete [5, 9]: 7(30.4)
- Response: Overall [5, 9]: 14(60.8)
- Response: Partial [5, 9]: 7(30.4)
- Response: Progression [5, 9]: 0(0.0)
- Response: Stable [5, 9]: 9(39.1)
- Response: Complete [5, 10]: 5(20.8)
- Response: Overall [5, 10]: 9(37.5)
- Response: Partial [5, 10]: 4(16.7)
- Response: Progression [5, 10]: 0(0.0)
- Response: Stable [5, 10]: 15(62.5)
- overall response rate (partial plus complete) ([5]; ninety days after treatment, 47 patients, eight day or fourteen day treatment): 48.7%
- adverse effects ([5]; no patient withdrawn because of an adverse event): all averse effects reported were mild
- highest overall response rate ([5]; patients treated for eight days): 60.8%
- response ([5]; two patients, four day treatment): no response

Molecule: COc1ccc(-c2nc3ccc(C(=O)O)cc3[nH]2)cc1C12CC3CC(CC(C3)C1)C2 [Compound 2, 2-[3-(1-adamantyl)-4-methoxyphenyl]-5-benzimidazole carboxylic acid]
- Types of Cancers and Precancers Active Against [1]: brain, colon, leukemia, lung,; also recorded: cervical (including, e.g.,; also recorded: cervical intraepithelial neoplasia; also recorded: I, II, III), lymphoma, myeloma,; also recorded: ovarian, pancreatic, prostate,; also recorded: skin, liver
- anti-cancer activity [6]: significant anti-cancer activity
- effect on proliferation of human cervical cell lines [3]: strong inhibitory effect

Molecule: O=C(O)c1ccc2cc(-c3ccc(CO)c(C45CC6CC(CC(C6)C4)C5)c3)ccc2c1 [Compound 3, 6-[3-(1-adamantyl)-4-hydroxymethylphenyl]-2-naphthoic acid]
- Types of Cancers and Precancers Active Against [1]: bladder, brain, breast, cervical,; also recorded: colon, head and neck, leukemia,; also recorded: kidney, lung, myeloma, ovarian,; also recorded: pancreatic, prostate, skin, liver
- anti-cancer activity [6]: significant anti-cancer activity

Molecule: COc1cc(-c2ccc3cc(C(=O)O)ccc3c2)cc(C23CC4CC(CC(C4)C2)C3)c1O [Compound 4, 6-[3-(1-adamantyl)-4-hydroxy-5-methoxyphenyl]-2-naphthoic acid]
- Types of Cancers and Precancers Active Against [1]: brain, breast, kidney, lung,; also recorded: leukemia, lymphoma, myeloma,; also recorded: ovarian, pancreatic, prostate,; also recorded: skin, liver
- anti-cancer activity [6]: significant anti-cancer activity

Molecule: COc1ccc(-c2ccc3cc(C(=O)NCCN)ccc3c2)cc1C12CC3CC(CC(C3)C1)C2 [Compound 45, N-(2-aminoethyl)-{6-[3-(1-adamantyl)-4-methoxyphenyl]-2-naphthalenecarboxamide]]
- Types of Cancers and Precancers Active Against [1]: bladder, kidney, prostate,; also recorded: leukemia, breast, lung, neuro-; also recorded: blastoma, hepatoma, pancreas,; also recorded: cervix skin

Molecule: O=C(c1ccc2cc(-c3cc4c(c(C56CC7CC(CC(C7)C5)C6)c3)OCO4)ccc2c1)N1CCNCC1 [Compound 46, N-{6-[3-(1-adamantyl)-4,5-methylenedioxy]-2-naphthalenecarboxoyl}piperazide]
- Types of Cancers and Precancers Active Against [1]: prostate, neuroblastoma,; also recorded: hepatoma

Molecule: O=C(c1ccc2cc(-c3cc4c(c(C56CC7CC(CC(C7)C5)C6)c3)OCO4)ccc2c1)N1CCCNCC1 [Compound 47, N-{6-[3-(1-adamantyl)-4,5-methylenedioxy]-2-naphthalenecarboxoyl}homopiperazide]
- Types of Cancers and Precancers Active Against [1]: bladder, neuroblastoma, cervix, and skin

Molecule: NCCNC(=O)c1ccc2cc(-c3cc4c(c(C56CC7CC(CC(C7)C5)C6)c3)OCO4)ccc2c1 [Compound 48, N-(2-aminoethyl)-{6-[3-(1-adamantyl)-4,5-methylenedioxyphenyl]-2-naphthalenecarboxamide}]
- Types of Cancers and Precancers Active Against [1]: breast, hepatoma, skin

Molecule: CC12CC3CC(C1)CC(c1cc(-c4ccc5cc(C(=O)O)ccc5c4)ccc1O)(C3)C2 [Compound 49, 6-[3-(3-methyl-1-adamantyl)-4-hydroxyphenyl]-2-naphthalenecarboxylic acid]
- Types of Cancers and Precancers Active Against [1]: breast, neuroblastoma, leukemia

Molecule: CC1=C(/C=C/C(C)=C/C=C/C(C)=C/C(=O)O)C(C)(C)CCC1 [all-trans-retinoic acid, reference compound]
- activity against human cancers (percentage of surviving cells) [7]: did not give comparable results
- anti-cancer activity [6]: did not exhibit similar activity
- effect on proliferation of human cervical cell lines [3]: no significant effect on cell proliferation
- induction of apoptosis [4]: did not induce apoptosis significantly

Molecule: Ceramide
- induction of apoptosis [4]: effectively induced apoptosis
